Reference: patent US6531435B1 (priority 2000, dated 2003)
Read-outs that look alike come from different tables or passages of the source.

Experiments:
[1] = test system: TSST-1; type: cell-based, Staphylococcus aureus
[2] = test system: S. aureus MN8; type: cell-based, Staphylococcus aureus; settings: 24 hours at 35° C.

Substance | TSST-1 ([1]; 24 hours at 35° C.) [ng/mL] | Final [S. aureus] (×10^9 CFU/ml) [2] | TSST-1 [1] [ng/mL]
Laureth-4 | 531.8 | 4.57 ×10^9 CFU/ml | 
PPG-5 Laureth-5 |  | 3.82 ×10^9 CFU/ml | 609.2
Steareth-2 | 680.7 | 5.76 ×10^9 CFU/ml | 
